Marks after values point to notes of the source that are not given here.
Assays:
Format in all cases: in vivo, rat
IL-1β = assay: Inflammatory marker IL-1β (ELISA), AlCl3 Alzheimer's model; details: 5 mg/kg, p.o. + AlCl3 (100 mg/kg, i.p.); n = 6
Source text: (§1) The inflammatory markers Fibrinogen, IL-1β were estimated using ELISA kit (Krishgen Biosystems, India).

β-amyloid (1-42) = β-amyloid (1-42) level in plasma (ELISA), AlCl3 Alzheimer's model; details: 5 mg/kg, p.o. + AlCl3 (100 mg/kg, i.p.); plasma; Mean ± SEM, n = 6
Source text: (§2) The levels of Tau, β-amyloid (1-42) and Apolipoprotein E were estimated. using ELISA kit (Krishgen Biosystems, India). All the protein biomarkers of AD were elevated in the AD control group.

Alzheimer's disease [1] = assay: Morris water maze (MWM) test in rats with AlCl3-induced Alzheimer's disease; details: 5 mg/kg, p.o. + AlCl3 (100 mg/kg, i.p.); MWM at 17th day; Mean ± SEM, n = 6
Description: Morris water maze (MWM)—This test was performed as per protocol established by Ishola et al., Protective role of Spondiasmombin leaf and Cola acuminata seed extracts against scopolamine-induced cognitive dysfunction. Alexandria J Med. 2018; 54(1):27-39. MWM is a round water tank “diameter: 110 cm and height: 60 cm” consisting of a white surface and that is filled using opaque water (Temp. 26±2° C.) to a distance (depth) of 30 cm. The MWM tank circle is divided into 4 equal quadrants [North Quadrant 1, East Quadrant 2, West Quadrant 3, and South Quadrant 4]. Further, it consists of a 10 cm diameter platform in a constant position. Index of memory improvement is measured by the Escape Latency Time (ELT)—which is the time the animal takes to find the platform.
The MWM plays an important role in the testing of learning and memory in rodent models of Alzheimer's Disease. It is used to test hippocampal-dependent learning, including acquisition of spatial memory and long-term spatial memory (Bromley-Brits et al., Morris water maze test for learning and memory deficits in Alzheimer's disease model mice, J Vis Exp., 2011 Jul. 20:(53):2920). In this study, learning was impaired in the Alzheimer's group.

Alzheimer's disease [2] = assay: Elevated plus maze (EPM) test in rats with AlCl3-induced Alzheimer's disease; details: 5 mg/kg, p.o. + AlCl3 (100 mg/kg, i.p.), Mean ± SEM, n = 6
Description: Elevated plus maze (EPM)—Elevated plus maze (EPM)—This test was performed as per reported protocol (Bhuvanendran et al., Amelioration of cognitive deficit by Embelin in a Scopolamine-induced Alzheimer's disease-like condition in a rat model. Front Pharmacol. 2018:9(6):1-12 and Biradar et al., (2020) Experimental validation and network pharmacology evaluation to decipher the mechanism of action of Erythrina variegata L. bark against scopolamine-induced memory impairment in rats. Adv Tradit Med. 2020:26:1-4). EPM contains 2 closed and 2 open arms (four arms; equal dimensions of 50×10 cm). These 4 arms connect at central with a 10×10 cm square gap as an initial point. The transfer latency (TL) was recorded via stopwatch by keeping rats independently toward one side of the open arm. The EPM TL cut-off was set to 60 s throughout the study. […] Index of memory improvement is measured as a drop of transfer Latency (TL) by test drug.
The elevated plus maze is a test that is widely used to assess the anti-anxiety effects of test substances. As the test measures open arm activity, an increase in open arm activity (duration and/or entries) reflects anti-anxiety behaviour (Walf et al., The use of the elevated plus maze as an assay of anxiety-related behavior in rodents, Nat Protoc. 2007; 2(2): 322-328). In the present study, inducing Alzheimer's in the animals increased their anxiety which was reduced by the administration on Gingerenone A (Table 3).

Apolipoprotein E = Apolipoprotein E level in plasma (ELISA), AlCl3 Alzheimer's model; details: 5 mg/kg, p.o. + AlCl3 (100 mg/kg, i.p.); plasma; Mean ± SEM, n = 6
Source text: as §2

Fibrinogen = assay: Inflammatory marker fibrinogen (ELISA), AlCl3 Alzheimer's model; details: 5 mg/kg, p.o. + AlCl3 (100 mg/kg, i.p.); Mean ± SEM, n = 6
Source text: as §1

Parkinson's disease [3] = assay: Catalepsy test in rats with reserpine-induced Parkinson's disease; parameters: catalepsy score at 30 min / catalepsy score at 60 min / catalepsy score at 120 min: unit not given here; details: 25 mg/kg, p.o. + Reserpine (4 mg/kg, s.c.), Mean ± SEM, n = 6
Source text: (§3) The induction of Parkinson's disease and measurement of other parameters were done as per the reported protocol (Santos et al., Cognitive, motor and tyrosine hydroxylase temporal impairment in a model of parkinsonism induced by reserpine. Behav Brain Res. 2013; 253:68-77 and Shishehbore et al. A novel kinetic spectrophotometric method for the determination of dopamine in biological and pharmaceutical samples. J Chem. 2013; 2013:1-6). Induction of Parkinson's disease was done by administering Resperine, which inhibits the monoamine vesicular transporters, thus decreasing the levels of monoamine neurotransmitters in the brain. Following pretreatment for 14 days with Gingerenone A, the rat groups received subcutaneous injections of reserpine (4 mg/kg) for the final five days of the treatment regimen. Resperine (5 mg) was dissolved in 1 ml of 1% acetic acid and then diluted tenfold with distilled water to achieve a final concentration of 500 μg/ml. The normal control group received saline with 1% acetic acid […], administered from day 10 to day 14. Thirty minutes following the administration of reserpine on the 14th day, behavioural assessments were conducted using the Open Field test, Y Maze, and Catalepsy tests to evaluate changes. Rats administered with Carbidopa, a known drug for the management of Parkinson's disease was also used for comparison. Upon completion of the study, brains were harvested for biochemical analyses and histopathological studies. The experimental group is depicted in table 10.
NeuroMol Med. 202022(2):314-330. Catalepsy in rats' manifests as an unresponsiveness to external stimuli accompanied by muscle rigidity. During the catalepsy test, rats were positioned on a wooden bar elevated 3-9 cm above the surface, with their forelimbs resting on it after administration of reserpine. The time taken for the rats to correct their posture was recorded as an indicator of catalepsy. Catalepsy ceased either when the rats climbed up the bar or when their forelimbs touched the floor. Observations were made at 30, 60, and 120 minutes after administration. All assessments were conducted in a quiet environment at a temperature of 23-25 degrees Celsius, with a maximum observation time of 5 minutes per trial.

Parkinson's disease [4] = assay: Open field test in rats with reserpine-induced Parkinson's disease; details: 25 mg/kg, p.o. + Reserpine (4 mg/kg, s.c.); open field; Mean ± SEM, n = 6
Source text: as §3
Open filed test—The test was conducted as per protocol described by Saleem et al., Pharmacological Potential of the Standardized Methanolic Extract of Prunus armeniaca L. in the Haloperidol-Induced Parkinsonism Rat Model. Evid Based Complement Alternat Med. 2022:29; 3697522. doi: 10.1155/2022/3697522. This test was conducted to assess the locomotor and exploratory behaviors of the experimental rats. A square-shaped wooden box measuring 100 cm in width, 100 cm in […], and 45 cm in height was constructed using plywood material, painted white, with a black-lined floor divided into 25 blocks. The rats were placed in the center of the field for a duration of 5 minutes and allowed to explore the box freely. The number of squares crossed, both centrally and horizontally, along with the total number of crossings, instances of defecation, freezing behavior, and postures were recorded during this period. Normal animals readily and quickly acclimate to the chamber and try to explore the center area of the squares.

Parkinson's disease [5] = assay: Y-maze test in rats with reserpine-induced Parkinson's disease; details: 25 mg/kg, p.o. + Reserpine (4 mg/kg, s.c.); Y maze; Mean ± SEM, n = 6
Source text: as §3
Y-maze test—In the Y-maze test, spontaneous alterations serve as an indicator of working short-term memory.
The maze consisted of a triangular central area with three equilateral arms labeled A, B, and C, each measuring 35 cm in length, 25 cm in height, and 10 cm in width. During the test, each rat was placed in the central area, facing one of the arms. An entry was scored when all four paws of the rat entered an arm. Spontaneous alterations in behavior were defined as consecutive entries into different arms (e.g., ABC, BCA, or CAB, but not CAC). The maximum number of spontaneous alterations ([…]) and the percentage of spontaneous alterations (actual number of alterations divided by the maximum alterations, multiplied by 100) were calculated for each rat (Kraeuter et al., The Y-Maze for Assessment of Spatial Working and Reference Memory in Mice. Methods Mol Biol. 2019; 1916:105-111).

SMILES | IL-1β (IL-1β) | β-amyloid (β-amyloid (1-42)) | Escape Latency Time (Alzheimer's disease [1]) | EPM at 16th day Transfer Latency (Alzheimer's disease [2]; 16th day) | EPM at 17th day Transfer Latency (Alzheimer's disease [2]; 17th day) | Apolipoprotein E (Apolipoprotein E) | Fibrinogen (Fibrinogen) | catalepsy score at 30 min (Parkinson's disease [3]; 30 min) | catalepsy score at 60 min (Parkinson's disease [3]; 60 min) | catalepsy score at 120 min (Parkinson's disease [3]; 120 min) | Freezing (Parkinson's disease [4]) | Number of central explorations (Parkinson's disease [4]) | Number of squares crossed (Parkinson's disease [4]) | No of arm entries (Parkinson's disease [5]) | Spontaneous alterations (%) (Parkinson's disease [5])
COc1cc2c(cc1OC)C(=O)C(CC1CCN(Cc3ccccc3)CC1)C2 (stereo not drawn) [Donepezil, reference compound] | 62.16** pg/ml | 8.02 ± 0.043 pg/mL | 26.96 ± 2.58 s | 18.57 ± 0.68 s | 18.22 ± 0.92 s | 6.96 ± 0.065 ng/mL | 16.77 ± 0.053 ng/mL |  |  |  |  |  |  |  | 
C[C@@](Cc1ccc(O)c(O)c1)(NN)C(=O)O [Carbidopa, reference compound] |  |  |  |  |  |  |  | 1.52 ± 0.42 | 1.60 ± 0.70 | 1.45 ± 0.70 | 9.63 ± 0.60 s | 20.25 ± 1.03 | 31.80 ± 3.18 | 12.58 ± 1.04 | 27.31 ± 1.56 %

Reference: patent US20260325464A1, “COMPOSITIONS FOR MODULATING THE EXPRESSION OF AQUAPORINS IN NEURODEGENERATIVE DISORDERS” (priority 2023, published 2026)
